From patent US20160303184A1, “VANCOMYCIN-SUGAR CONJUGATES AND USES THEREOF” (JAWAHARLAL NEHRU CENTRE FOR ADVANCED SCIENTIFIC RESEARCH …, priority 2013, published 2016)
Converted amounts (≈) assume the structure as drawn. Where two headings read alike, the source gives them in different places.

Assays:
MR-VISA [1] = experiment: In-vivo antibacterial activity, neutropenic mouse thigh infection; set-up: species or system Staphylococcus aureus; settings: 12 mg/kg i.v., neutropenic mice, 24 h
Protocol: About six-week-old, female CD-1 mice (weight, ˜19-24 g) were used for the experiments. The mice were rendered neutropenic (˜100 […]) by injecting two doses of cyclophosphamide intraperitoneally 4 days (150 mg/kg) and 1 day (100 mg/kg) before the infection experiment. 50 μl of ˜10^7 CFU/ml concentration of the bacterial inoculum (MR-VISA) was injected into the thigh. One hour after inoculation, animals were treated intravenously with saline, vancomycin, linezolid and compound 7 at 12 mg/kg and 24 mg/kg of body weight (24 h total dosage). At 24 h post first treatment, cohorts of animals were euthanized (using ether) and the thighs were collected aseptically. The thigh was weighed (0.7 g-0.9 g) and placed into 10 ml of sterile saline and homogenized. The dilutions of the homogenate were plated onto agar plates, which were incubated overnight at 37° C. The bacterial titer was expressed as log10 CFU/g of thigh weight.

[2] = tested on: Methicillin-sensitive S. aureus (MTCC 737); experiment: MIC, micro-dilution broth, MSSA; format: cell-based; settings: Staphylococcus aureus, read-out: MIC MSSA
Protocol: (§1) All test compounds were assayed in a micro-dilution broth format. Stock solutions were made by serially diluting the compounds using autoclaved millipore water or broth media. The antibacterial activity of the compounds was determined against methicillin-sensitive S. aureus (MSSA), methicillin-resistant S. aureus (MRSA), vancomycin-intermediate-resistant S. aureus (VISA), vancomycin-sensitive E. faecium (VSE) and vancomycin-resistant E. faecium (VRE). Bacteria, to be tested, were grown for about 10 h in the suitable media, MSSA, MRSA and VISA were grown in yeast-dextrose broth (about 1 g of beef extract, about 2 g of yeast extract, about 5 g of peptone and about 5 g of NaCl in about 1000 mL of sterile distilled water (pH-7)). For solid media, about 5% agar was used along with above mentioned composition. VSE and VRE were cultured in brain heart infusion broth (Himedia). The bacterial samples were freeze dried and stored at −80° C. About 5 μL of these stocks were added to about 3 mL of the nutrient broth and the culture was grown for about 6 h at about 37° C. prior to the experiments. This 6 h grown culture gives about 10^9 cfu/mL and this was determined by spread plating method. The 6 h grown culture was diluted to give effective cell concentration of about 10^5 cfu/mL which was then used for determining MIC. Compounds were serially diluted, in sterile water (2 fold dilution is employed) in a way that the working concentration was about 10 μM for MSSA, MRSA, and VSE while for VRE and VISA it was about 100 μM. About 50 μL of these serial dilutions were added to the wells of 96 well plate followed by the addition of about 150 μL of bacterial solution. The plates were then incubated at about 37° C., 150 rpm in the incubator and O.D at 600 nm was recorded at an interval of about 10 h and 24 h using TECAN (Infinite series, M200 pro) Plate Reader. Each concentration had triplicate values and the whole experiment was done at least twice and the MIC value was determined by taking the average of triplicate. O. D. values for each concentration and plotting it against concentration. The data was then subjected to sigmoidal fitting. From the curve the MIC value was determined, as the point in the curve where the O. D. was similar to that of control having no bacteria.

VISA = experiment: In-vivo time dependent whole blood assay; set-up: species or system S. aureus; settings: 12 mg/kg single i.v., CD-1 mice
Protocol: The derivative 7 and vancomycin were administered in a single intravenous injection (0.2 mL saline) to normal pathogen-free, female CD-1 mice. Doses of 12 mg kg^−1 were administered to three mice per data point. At the specified time-points (0, 3, 6, 12, 24 and 48 h) mice were euthanized (using ether), blood samples were collected from the ocular puncture. 60 μL of VISA in saline (0.9% NaCl; 10^6 CFU/mL) was added to 540 μL of whole blood which was drawn from the mice and incubated at 37° C. for 3 h. After the incubation period, antibacterial activity was determined by finding the bacterial titer in the infected blood.

[3] = tested on: methicillin-resistant S. aureus clinical isolate; experiment: MIC, clinical isolate of methicillin-resistant S. aureus; format: cell-based; settings: Staphylococcus aureus, read-out: MIC S. aureus
Protocol: as §1

MR-VISA [4] = experiment: Pharmacodynamics against MR-VISA thigh infection, single dose; format: in vivo, Staphylococcus aureus; settings: single i.v. dose; for ED50: 50% maximal bacterial killing; for EDstasis: 24-h colony count similar to pretreatment count
Protocol: Data are expressed as means±SD (error bars). A separate single-dose study of compound 7 was performed in neutropenic mice inoculated in the thigh with 50 μL of MR-VISA (10^7 CFU/ml). Infected animals were treated intravenously, at 1 h post infection, with 2 mg/kg, 4 mg/kg, 8 mg/kg and 12 mg/kg. At 24 h post inoculation mice were sacrificed and the thigh tissues were harvested for determination of bacterial titer as mentioned above.

[5] = Single dose pharmacokinetics; format: in vivo, CD-1 female mice; set-up: clearance: unit not given here; settings: 12 mg/kg single i.v., mice, plasma
Protocol: A single dose pharmacokinetic analysis of compound 7 was performed in CD-1 female mice. Mice were administered a single intravenous dose of 12 mg/kg. Blood samples were collected from mice by retro-orbital aspiration and placed into heparinized tubes at different time intervals after dosing. The plasma was separated by centrifugation, and drug plasma concentrations were measured by microbiologic assay with Bacillus subtilis as the test organism. The lower limit of detection of the assay was 0.6 μg/ml. Pharmacokinetic parameters, including half-life, AUC and Cmax were calculated by using non-compartmental model.

CCCCCCCCCCN[C@]1(C)C[C@H](OC2C(O)[C@@H](O)C(CO)O[C@@H]2Oc2c3cc4cc2Oc2ccc(cc2Cl)[C@@H](O)[C@@H](NC(=O)[C@@H](CC(C)C)NC)C(=O)N[C@@H](CC(N)=O)C(=O)N[C@H]4C(=O)N[C@H]2C(=O)N[C@H](C(=O)N[C@H](C(=O)NCCCNC(=O)[C@H](O)[C@@H](O)[C@H](OC4OC(CO)C(O)C(O)[C@H]4O)[C@H](O)CO)c4cc(O)cc(O)c4-c4cc2ccc4O)[C@H](O)c2ccc(c(Cl)c2)O3)OC(C)[C@@H]1O (stereo partly shown) [Compound 7]
reduction in bacterial count from the initial titer (MR-VISA [1]): ~3.0 log10 CFU/g | MIC [2]: 0.2 µM (≈ 0.397 µg/mL) | CFU/mL reduction (VISA; blood drawn up to 24 h, VISA): 3 log10 CFU/mL | time after dosing up to which blood showed antibacterial activity (VISA; blood incubated with VISA 3 h): 24 h | MIC [3]: 0.3 µM (≈ 0.596 µg/mL) | ED50 (MR-VISA [4]; Staphylococcus aureus, VISA, in Mus musculus, iv, 24 h, neutropenic mice thigh, 24 h, read-out: ED50): 1.05 mg/kg | ED1-log kill (MR-VISA [4]; neutropenic mice thigh, 24 h): 3.7 mg/kg | ED2-log kill (MR-VISA [4]; neutropenic mice thigh, 24 h): 8.8 mg/kg | ED2.6-log kill (MR-VISA [4]; neutropenic mice thigh, 24 h): 12 mg/kg | ED50 (MR-VISA [4]; neutropenic mice thigh, 24 h): 1.0 mg/kg | EDstasis (MR-VISA [4]): 2.2 mg/kg | EDstasis (MR-VISA [4]; listed as compound 7): 2.22 mg/kg | Cmax [5]: 703 µg/mL | Cmin [5]: 1.7 µg/mL | half-life ([5]; female, CD-1, mouse, iv): 2.76 h | AUC(0-t) ([5]; female, CD-1, mouse, iv, read-out: AUC0-24 h): 562 µg·h/mL | Cmax ([5]; female, CD-1, mouse, iv, 12 mg/kg, read-out: Cmax): 703 µg/mL | clearance ([5]; female, CD-1, mouse, iv): 4.17 | AUC ([5]; female, CD-1, mouse, iv, 0.083 h to 24 h): 562 µg·h/mL
